Reference: patent EP0339496A2, “Aminoguanidine derivatives” (ONO PHARMACEUTICAL CO., LTD., priority 1988, dated 1989)

System: advanced glycosylation end products in arterial wall connective tissue protein
Test: not given
Details: administered to diabetic rats; Brownlee et al., Science, 232, 1629 (1986); cited from earlier work

SMILES | inhibits diabetes-induced accumulation of advanced glycosylation end products in arterial wall connective tissue protein
N=C(N)NN [aminoguanidine] | inhibits

System: Maillard reaction
Test: not given
Details: Brownlee et al., Science, 232, 1629 (1986); cited from earlier work

SMILES | inhibits Maillard reaction in vitro
N=C(N)NN [aminoguanidine] | inhibits

System: Maillard reaction
Test: Inhibitory effect on Maillard reaction in vitro (bovine serum albumin + glucose, fluorescence)
Assay type: biochemical
Details: test compound 6 mM; bovine serum albumin 100 mg/ml, glucose 200 mM, 0.5 M phosphate buffer pH 7.38, one week at 37°C; fluorescence ex 360 nm / em 450 nm
Protocol: In order to evaluate the inhibitory effect on Maillard reaction in vitro, of the compounds in the present invention, the measurement was carried out under conditions described below. Bovine serum albumin (100 mg/ml), glucose (200 mM) and test compound (6 mM, 30 mM in example 2 and 2(a)) were dissolved in 0.5 M phosphatic buffer solution (pH 7.38), and the mixture was incubated for a week at 37°C. After incubation, the incubated medium was diluted 100 times with the same phosphatic buffer solution, and the fluorescence spectrum was measured at the excitation maximum of 360nm and the emission maximum of 450 nm. Inhibition percentage of the test compounds was calculated by the following equation: [table]

SMILES | Inhibitory effect (%)
COc1ccc(CNC(=N)NN)cc1.I [1 (f), 1-amino-3-(4-methoxybenzyl) guanidine hydroiodide] | 54%
I.N=C(NN)NCc1cccc([N+](=O)[O-])c1 [1 (i), 1-amino-3-(3-nitrobenzyl) guanidine hydroiodide] | 57%
I.N=C(NN)NCc1ccc(F)cc1 [1 (e), 1-amino-3-(4-fluorobenzyl) guanidine hydroiodide] | 43%
CN(C(=N)NN)c1ccccc1.I [1 (o), 1-amino-3-methyl-3-phenyl guanidine hydroiodide] | 54%
N=C(N)N(N)CC1CCCC1 [2 (c), 1-amino-1-cyclopenthylmethyl guanidine] | 56%
CCCCN(CCCC)C(=N)NN [1 (g), 1-amino-3,3-n-butylguanidine hydroiodide] | 34%
I.N=C(NN)NCCc1ccccc1 [Example 1 (a), 1-amino-3-phenethylguanidine hydroiodide] | 72%
Cl.N=C(NN)N1CCOCC1 [1 (v), 4-morpholinecarbohydrazide imide hydrochloride] | 36%
N=C(NN)NCc1cccc2ccccc12 [1 (h), 1-amino-3-(1-naphtylmethyl) guanidine hydroiodide] | 51%
Cl.N=C(NN)N1CCCC1 [1 (u), 1-pyrrolidinecarbohydrazide imide hydrochloride] | 43%
I.N=C(NN)NCc1ccccc1 [Example 1, 1-amino-3-benzylguanidine hydroiodide] | 63%
CN(N)C(=N)NCc1ccccc1.I [1 (r), 1-amino-1-methyl-3-benzylguanidine hydroiodide] | 36%
N=C(N)N(N)CCCc1ccccc1 [2 (b), 1-amino-1-(3-phenylpropyl) guanidine] | 50%

Same assay, conditions: test compound 30 mM (example 2 and 2(a)); bovine serum albumin 100 mg/ml, glucose 200 mM, 0.5 M phosphate buffer pH 7.38, one week at 37°C; fluorescence ex 360 nm / em 450 nm

SMILES | Inhibitory effect (%)
N=C(N)N(N)Cc1ccccc1 [Example 2 (a), 1-amino-1-benzylguanidine] | 50%
N=C(N)N(N)CCc1ccccc1 [Example 2, 1-Amino-1-phenethylguanidine] | 71%
